Measured values: patent US4362743A, “Antibacterial monic acid esters” (Beecham Group Limited, priority 1980, dated 1982)
In brackets after ≈: the same amount, converted by molar mass. Where two headings read alike, the source gives them in different places.

Columns and labels:
[1] = test system: M. suipneumoniae J2206/183b; experiment: Anti-mycoplasmal activity in vitro MIC; assay type: cell-based; settings: Mesomycoplasma hyopneumoniae, 144 h; M. suipneumoniae J2206/183b; Friis broth, 0.9% agarose, 6 days 37° C.; read-out: M.I.C.
[2] = test system: M. suipneumoniae ATCC 25095; experiment: Anti-mycoplasmal activity in vitro MIC; assay type: cell-based; settings: Mesomycoplasma hyopneumoniae, ATCC25095, 144 h; M. suipneumoniae ATCC 25095; Friis broth, 0.9% agarose, 6 days 37° C.; read-out: M.I.C.
[3] = test system: M. bovigenitalium ATCC 14173; experiment: Anti-mycoplasmal activity in vitro MIC; assay type: cell-based; settings: 144 h
M. pneumoniae ATCC 15492 = experiment: Anti-mycoplasmal activity in vitro MIC; assay type: cell-based; settings: Mycoplasmoides pneumoniae, ATCC15492, 144 h
Bord. brochiasetpica B09 = experiment: Veterinary bacteria MIC; assay type: cell-based; settings: Diagnostic Sensitivity Test Agar, 18 hours 37° C.
Description: (§1) The values were determined using a two fold serial dilutions in Diagnostic Sensitivity Test Agar with an inoculum of 10^4 organisms and incubation for 18 hours at 37° C.

Bord. bronchiseptica B08 = experiment: Veterinary bacteria MIC; assay type: cell-based; settings: Bordetella bronchiseptica; Bord. bronchiseptica B08; Diagnostic Sensitivity Test Agar, 18 hours 37° C.; read-out: M.I.C.
Description: as §1

[4] = test system: Corynebacterium pyogenes CY1; experiment: Veterinary bacteria MIC; assay type: cell-based; settings: Trueperella pyogenes; Corynebacterium pyogenes CY1; Diagnostic Sensitivity Test Agar, 18 hours 37° C.; read-out: M.I.C.
Description: as §1

E. coli El = experiment: Veterinary bacteria MIC; assay type: cell-based; settings: Escherichia coli; E. coli El; Diagnostic Sensitivity Test Agar, 18 hours 37° C.; read-out: M.I.C.
Description: as §1

E. coli NCTC 10418 = experiment: Veterinary bacteria MIC; assay type: cell-based; settings: Escherichia coli, NCTC10418; E. coli NCTC 10418; Diagnostic Sensitivity Test Agar, 18 hours 37° C.; read-out: M.I.C.
Description: as §1

[5] = test system: Erysipelothrix rhusiopathiae NCTC 8163; experiment: Veterinary bacteria MIC; assay type: cell-based
Description: as §1

Past. haemolytica PA5 = experiment: Veterinary bacteria MIC; assay type: cell-based; settings: Mannheimia haemolytica; Past. haemolytica PA5; Diagnostic Sensitivity Test Agar, 18 hours 37° C.; read-out: M.I.C.
Description: as §1

Past. multocida PA1 = experiment: Veterinary bacteria MIC; assay type: cell-based; settings: Pasteurella multocida, Diagnostic Sensitivity Test Agar, 18 hours 37° C.
Description: as §1

Past. multocida PA2 = experiment: Veterinary bacteria MIC; assay type: cell-based; settings: Pasteurella multocida; Past. multocida PA2; Diagnostic Sensitivity Test Agar, 18 hours 37° C.; read-out: M.I.C.
Description: as §1

S. dublin S7 = experiment: Veterinary bacteria MIC; assay type: cell-based; settings: Salmonella enterica; S. dublin S7; Diagnostic Sensitivity Test Agar, 18 hours 37° C.; read-out: M.I.C.
Description: as §1

S. typhimurium S18 = experiment: Veterinary bacteria MIC; assay type: cell-based; settings: Salmonella enterica; S. typhimurium S18; Diagnostic Sensitivity Test Agar, 18 hours 37° C.; read-out: M.I.C.
Description: as §1

[6] = test system: Staph. aureus 152 (pen. sens); experiment: Veterinary bacteria MIC; assay type: cell-based; settings: Staphylococcus aureus, Diagnostic Sensitivity Test Agar, 18 hours 37° C.
Description: as §1

[7] = test system: Staph. aureus B4 (pen. resistant); experiment: Veterinary bacteria MIC; assay type: cell-based; settings: Staphylococcus aureus, Diagnostic Sensitivity Test Agar, 18 hours 37° C.
Description: as §1

Staph. aureus Oxford = experiment: Veterinary bacteria MIC; assay type: cell-based; settings: Staphylococcus aureus, Diagnostic Sensitivity Test Agar, 18 hours 37° C.
Description: as §1

Strep. agalactiae SPA1 = experiment: Veterinary bacteria MIC; assay type: cell-based; settings: Streptococcus agalactiae, Diagnostic Sensitivity Test Agar, 18 hours 37° C.
Description: as §1

Strep. dysgalactiae SPD1 = experiment: Veterinary bacteria MIC; assay type: cell-based; settings: Streptococcus dysgalactiae, Diagnostic Sensitivity Test Agar, 18 hours 37° C.
Description: as §1

[8] = test system: Strep. suis (Group D) SPS11; experiment: Veterinary bacteria MIC; assay type: cell-based; settings: Streptococcus suis; Strep. suis (Group D) SPS11; Diagnostic Sensitivity Test Agar, 18 hours 37° C.; read-out: M.I.C.
Description: as §1

Strep. uberis SPU1 = experiment: Veterinary bacteria MIC; assay type: cell-based; settings: Streptococcus uberis, Diagnostic Sensitivity Test Agar, 18 hours 37° C.
Description: as §1

[9] = test system: Haemophilus influenzae Q1; experiment: Human bacteria MIC; assay type: cell-based
Description: (§2) The values were determined by serial dilutions in nutrient agar with 5% chocolated horse blood after incubations for 18 hours at 37° C.

K. aerogenes A = experiment: Human bacteria MIC; assay type: cell-based; settings: Klebsiella aerogenes; K. aerogenes A; nutrient agar, 5% chocolated horse blood, 18 hours 37° C.; read-out: M.I.C.
Description: as §2

[10] = test system: Neisseria catarralis 1502; experiment: Human bacteria MIC; assay type: cell-based
Description: as §2

P. mirabilis 889 = experiment: Human bacteria MIC; assay type: cell-based; settings: Proteus mirabilis; P. mirabilis 889; nutrient agar, 5% chocolated horse blood, 18 hours 37° C.; read-out: M.I.C.
Description: as §2

Sarcina lutea 8340 = experiment: Human bacteria MIC; assay type: cell-based; settings: Micrococcus luteus; Sarcina lutea 8340; nutrient agar, 5% chocolated horse blood, 18 hours 37° C.; read-out: M.I.C.
Description: as §2

Strep Group B 2788 = experiment: Human bacteria MIC; assay type: cell-based
Description: as §2

Strep. faecalis I = experiment: Human bacteria MIC; assay type: cell-based; settings: Enterococcus faecalis, nutrient agar, 5% chocolated horse blood, 18 hours 37° C.
Description: as §2

[11] = Serum binding by ultrafiltration; assay type: in vitro ADME; settings: pig, porcine serum, 8 mcg/ml, read-out: % bound to pig serum (converted)
Description: Serum binding was assessed by ultrafiltration of porcine serum containing compounds at 8 mcg/ml, and through an Amicon CF50A ultrafiltration cone. Separation of ultrafiltrate was achieved by centrifugation. Unbound concentrations of compound were measured in the ultrafiltrate by microbiological assay (B. subtilis ATCC 6633) against standards prepared in saline.

| Structure (SMILES) | MIC [1] [µg/mL] | MIC [2] [µg/mL] | MIC (M. pneumoniae ATCC 15492) [µg/mL] | MIC (Bord. brochiasetpica B09) [µg/mL] | MIC (Bord. bronchiseptica B08) [µg/mL] | MIC [4] [µg/mL] | MIC (E. coli El) [µg/mL] | MIC (E. coli NCTC 10418) [µg/mL] | MIC (Past. haemolytica PA5) [µg/mL] | MIC (Past. multocida PA1) [µg/mL] | MIC (Past. multocida PA2) [µg/mL] | MIC (S. dublin S7) [µg/mL] | MIC (S. typhimurium S18) [µg/mL] | MIC [6] [µg/mL] | MIC [7] [µg/mL] | MIC (Staph. aureus Oxford) [µg/mL] | MIC (Strep. agalactiae SPA1) [µg/mL] | MIC (Strep. dysgalactiae SPD1) [µg/mL] | MIC [8] [µg/mL] | MIC (Strep. uberis SPU1) [µg/mL] | also measured |
| --- | --- | --- | --- | --- | --- | --- | --- | --- | --- | --- | --- | --- | --- | --- | --- | --- | --- | --- | --- | --- | --- |
| CON=C(CCCOC(=O)/C=C(\C)C[C@@H]1OC[C@H](C[C@@H]2O[C@H]2[C@@H](C)[C@H](C)O)[C@@H](O)[C@H]1O)c1ccccc1 [Example 5, 4-Methoxyimino-4-phenylbutyl monate A] | 0.5 (≈ 0.962 µM) | 0.5 (≈ 0.962 µM) | 2.5 (≈ 4.81 µM) | 40 (≈ 77 µM) | > 80 | > 80 | > 80 | > 80 | 80 (≈ 154 µM) | 20 (≈ 38.5 µM) | 0.039 (≈ 0.0751 µM) | > 80 | > 80 | 0.625 (≈ 1.2 µM) | 0.625 (≈ 1.2 µM) | 0.625 (≈ 1.2 µM) | 1.25 (≈ 2.41 µM) | 1.25 (≈ 2.41 µM) | 20 (≈ 38.5 µM) | 0.625 (≈ 1.2 µM) | MIC ([3]; M. bovigenitalium ATCC 14173, Friis broth, 0.9% agarose, 6 days 37° C., read-out: M.I.C.): 0.05 µg/mL (≈ 0.0962 µM); MIC ([5]; Erysipelothrix rhusiopathiae, NCTC8163, 18 h): 40 µg/mL (≈ 77 µM); MIC ([9]; Haemophilus influenzae Q1, nutrient agar, 5% chocolated horse blood, 18 hours 37° C., read-out: M.I.C.): 2.5 µg/mL (≈ 4.81 µM); MIC (K. aerogenes A): > 100 µg/mL; MIC ([10]; Neisseria catarralis 1502, nutrient agar, 5% chocolated horse blood, 18 hours 37° C., read-out: M.I.C.): 1 µg/mL (≈ 1.92 µM); MIC (P. mirabilis 889): > 100 µg/mL; MIC (Sarcina lutea 8340): > 100 µg/mL; MIC (Strep Group B 2788; Strep Group B 2788, nutrient agar, 5% chocolated horse blood, 18 hours 37° C., read-out: M.I.C.): 5 µg/mL (≈ 9.62 µM); MIC (Strep. faecalis I): > 100 µg/mL; fraction unbound [11]: < 0.068 |
| C/C(=C\C(=O)OC1CCC(=NO)CC1)C[C@@H]1OC[C@H](C[C@@H]2O[C@H]2[C@@H](C)[C@H](C)O)[C@@H](O)[C@H]1O (stereo partly drawn) [Example 3, 4-Hydroxyiminocyclohexyl monate A] | 0.5 (≈ 1.1 µM) | 0.5 (≈ 1.1 µM) | 1 (≈ 2.2 µM) | 20 (≈ 43.9 µM) | > 80 | > 80 | > 80 | > 80 | 5 (≈ 11 µM) | 1.25 (≈ 2.74 µM) | 0.312 (≈ 0.685 µM) | > 80 | > 80 | 1.25 (≈ 2.74 µM) | 2.5 (≈ 5.49 µM) | 1.25 (≈ 2.74 µM) | 0.625 (≈ 1.37 µM) | 0.312 (≈ 0.685 µM) | 2.5 (≈ 5.49 µM) | 0.156 (≈ 0.342 µM) | MIC [3]: 0.025 µg/mL (≈ 0.0549 µM); MIC ([5]; NCTC8163, Erysipelothrix rhusiopathiae NCTC 8163, Diagnostic Sensitivity Test Agar, 18 hours 37° C., read-out: M.I.C.): 10 µg/mL (≈ 22 µM); MIC ([9]; Haemophilus influenzae, Q1, 18 h): 0.25 µg/mL (≈ 0.549 µM); MIC (K. aerogenes A): > 100 µg/mL; MIC ([10]; Neisseria, 1502, 18 h): 1 µg/mL (≈ 2.2 µM); MIC (P. mirabilis 889): > 100 µg/mL; MIC (Sarcina lutea 8340): > 100 µg/mL; MIC (Strep Group B 2788; 18 h): 1 µg/mL (≈ 2.2 µM); MIC (Strep. faecalis I): 25 µg/mL (≈ 54.9 µM); fraction unbound [11]: 0.355 |
